Experiments:
[1] = test system: adult subjects with brain volume loss (relapsing multiple sclerosis); experiment: 12-lead ECG heart rate and first-dose monitoring on Day 1; assay type: in vivo, human; conditions: for mean heart rate reduction compared to pre-dose: Day 1, 2-hours post dose, 12-lead ECG, ponesimod 20 mg arm, teriflunomide 14 mg; for subjects with asymptomatic post-dose HR≤40 bpm: Day 1, all had pre-treatment HR<55 bpm
Method: The incidence of treatment-emergent heart rate and rhythm (including hypotension) AESIs on Day 1 was higher in the ponesimod 20 mg arm (2.1%) than in the teriflunomide 14 mg arm (0.4%). However, the overall incidence of first dose AESI on Day 1 was low (2.1%) in ponesimod. None of these events were serious nor led to permanent discontinuation of study treatment. Discharge criteria at 4 hours post-dose were met for ca. 99% of subjects. […] ECG HR effect: nadir at 2 hours post-dose (siponimod—3-4 hours, fingolimod—around by 6 hours). Low incidence of low HR outliers (post-dose HR≤40 bpm), all 3 of them with a pre-treatment HR of <55 bpm, which is a known risk factor for post-dose bradycardia with S1P receptor modulators.
The mean heart rate reduction compared to pre-dose reached a maximum for ponesimod 20 mg at 2-hours post dose, −8.7 bpm compared to −1.7 bpm for teriflunomide 14 mg (FIG. 2).

[2] = test system: adult subjects with brain volume loss (relapsing multiple sclerosis); experiment: Percent change in brain volume from baseline (MRI, SIENA) in randomized double-blind study of ponesimod vs teriflunomide; assay type: in vivo, human; conditions: for LS Mean difference in percent change in brain volume (Ponesimod 20 mg − Teriflunomide 14 mg) / LS Mean percent change in brain volume from baseline: Week 108; for brain volume loss (BVL) up to EOS: teriflunomide 14 mg
Method: Main analysis set for efficacy: The Full Analysis Set (FAS) included all randomized subjects. Subjects were evaluated according to the treatment they were randomized to.
Efficacy variable/timepoint: The endpoint was brain volume loss up to the end of study (EOS). All available data up to EOS, regardless of treatment discontinuation was included (ITT approach).
Using a mixed model with linear time effect (adjusted for stratification factors, presence/absence of GD+T1 lesions at baseline, and normalized brain volume at baseline), the LS mean percent change from baseline to Week 108 in brain volume was −0.91% in the ponesimod 20 mg group (n=436) and −1.25% in the teriflunomide 14 mg group (n=434). The LS mean difference (ponesimod 20 mg—teriflunomide 14 mg) was 0.34% (95% CLs: 0.17, 0.50; p<0.0001).
Results of the analysis using a repeated measurements ANOVA model (MMRM) were consistent with that described above with respect to the mixed model with linear time effect.

[3] = test system: adult subjects with brain volume loss (relapsing multiple sclerosis); experiment: Reasons for premature treatment discontinuation in the study; assay type: in vivo; conditions: for subjects discontinued due to AEs or tolerability related reasons / subjects discontinued due to efficacy related reasons: ponesimod 20 mg, teriflunomide 14 mg
Method: A total of 1468 subjects were screened. Of those, 1133 subjects were randomized (567 to ponesimod 20 mg and 566 to teriflunomide 14 mg) across 162 sites in 28 countries, and 1131 subjects received at least one dose of study drug. The disposition of subjects is summarized in Table 1 and a summary of reasons (primary reason) for treatment discontinuation are shown in Table 2. Overall treatment and study discontinuation were balanced across both treatment arms. A total of 6.5% and 2.5% of the subjects discontinued due to AEs or tolerability related reasons in ponesimod 20 mg and teriflunomide 14 mg, respectively, while 1.9% and 4.3% discontinued due to efficacy related reasons. There were 2 deaths reported during the study—both on teriflunomide 14 mg.

[4] = test system: adult subjects with brain volume loss (relapsing multiple sclerosis); experiment: Treatment-emergent adverse events, AESIs and deaths (Safety Set); assay type: in vivo, human; conditions: Ponesimod 20 mg N = 565, Teriflunomide 14 mg N = 566
Method: The most common AESIs were reported for category hepatobiliary disorders/liver enzyme abnormality (25.7% vs 14.5% in ponesimod 20 mg compared to teriflunomide 14 mg, respectively), followed by category hypertension (10.1% vs 9.0%), and pulmonary events (8.0% vs 2.7%).

[5] = test system: adult subjects with brain volume loss (relapsing multiple sclerosis); conditions: human, in vivo
Excerpt: Based on the individual case review, most ALT/AST increases ≥3×ULN occurred as a single transient asymptomatic episode, resolving with continued treatment or after protocol mandated treatment discontinuation. All but one case of bilirubin increase ≥2×ULN occurred in subjects with pre-treatment bilirubin increases. One case of potential Hy's law occurred in a subject with pre-existing transaminase elevation (ALT>5×ULN), and the event fully resolved within 2 weeks after treatment discontinuation.

[6] = test system: adult subjects with brain volume loss (relapsing multiple sclerosis); experiment: Percent change in brain volume from baseline (MRI, SIENA) in randomized double-blind study of ponesimod vs teriflunomide; assay type: in vivo, human; conditions: Week 60
[7] = other S1P receptor modulators, given for comparison; cited from earlier work
[8] = mixed model with linear time effect
[9] = mixed model with linear time effect, Ponesimod 20 mg (436 subjects), Teriflunomide 14 mg (434 subjects)
[10] = repeated measurements ANOVA model (MMRM)
[11] = repeated measurements ANOVA model (MMRM), Ponesimod 20 mg (418 subjects), Teriflunomide 14 mg (414 subjects)
[12] = ponesimod 20 mg, up to end of study
[13] = Safety Set, Ponesimod 20 mg N = 565, Teriflunomide 14 mg N = 566

Compound	mean heart rate reduction compared to pre-dose [1] [bpm]	subjects with asymptomatic post-dose HR≤40 bpm [1]	LS Mean percent change in brain volume from baseline [2, 9] [%]	LS Mean percent change in brain volume from baseline [2, 11] [%]	brain volume loss (BVL) up to EOS [2, 12] [%]	Premature discontinuation: Death (number) [3, 13] [n]	Premature discontinuation: Physician decision, Adverse event (number) [3, 13] [n]	Premature discontinuation: Physician decision, Adverse event (percent) [3, 13]	Premature discontinuation: Physician decision, Lack of efficacy/treatment failure (number) [3, 13] [n]	Premature discontinuation: Physician decision, Lack of efficacy/treatment failure (percent) [3, 13]	Premature discontinuation: Pre-specified study treatment discontinuation criteria (number) [3, 13] [n]	Premature discontinuation: Pre-specified study treatment discontinuation criteria (percent) [3, 13]	Premature discontinuation: Subject decision, Efficacy related (number) [3, 13] [n]	Premature discontinuation: Subject decision, Efficacy related (percent) [3, 13]	Premature discontinuation: Subject decision, Tolerability related (number) [3, 13] [n]	Premature discontinuation: Subject decision, Tolerability related (percent) [3, 13]	subjects discontinued due to AEs or tolerability related reasons [3] [%]	subjects discontinued due to efficacy related reasons [3] [%]	Subject with at least one Fatal AE [4]	proportion of subjects who experienced ALT increase >8×ULN [5] [%]	other results
CCC/N=C1\S/C(=C\c2ccc(OC[C@H](O)CO)c(Cl)c2)C(=O)N1c1ccccc1C [Ponesimod, (R)-5-[3-chloro-4-(2,3-dihydroxy-propoxy)-benz[Z]ylidene]-2-([Z]-propylimino)-3-o-tolyl-thiazolidin-4-one]	−8.7	3 subjects	−0.91	−0.92	−0.91	0	29	(5.1) %	4	(0.7) %	12	(2.1) %	7	(1.2) %	8	(1.4) %	6.5	1.9	0 n (%)	0.7	2nd or higher degree AV block ([1]; Day 1, first dose): No 2nd or higher degree AV block was observed; subjects meeting discharge criteria at 4 hours post-dose ([1]; Day 1, first dose): ca. 99%; time of ECG HR nadir (maximum mean heart rate reduction) post-dose ([1]; Day 1, first dose): 2 h; LS Mean difference in percent change in brain volume (Ponesimod 20 mg − Teriflunomide 14 mg) [2, 8]: 0.34%; LS Mean difference in percent change in brain volume (Ponesimod 20 mg − Teriflunomide 14 mg) [2, 10]: 0.34%; reduction of brain volume loss up to EOS compared to teriflunomide 14 mg ([2]; ponesimod 20 mg): about 27%; efficacy in slowing brain volume loss over teriflunomide (conclusion) ([2]; ponesimod 20 mg vs teriflunomide 14 mg): superior efficacy; difference in BVL up to EOS, ponesimod 20 mg vs teriflunomide 14 mg ([2]; up to end of study, p<0.0001): 0.34%; proportion of subjects who experienced ALT increase ≥3×ULN [5]: 17.3%; LS Mean difference in percent change in brain volume (Ponesimod 20 mg − Teriflunomide 14 mg) [6, 8]: 0.08%; LS Mean percent change in brain volume from baseline [6, 9]: −0.45%; LS Mean difference in percent change in brain volume (Ponesimod 20 mg − Teriflunomide 14 mg) [6, 10]: 0.13%; LS Mean percent change in brain volume from baseline [6, 11]: −0.43%
C/C(O)=C(\C#N)C(=O)Nc1ccc(C(F)(F)F)cc1 [Teriflunomide]	−1.7	none	−1.25	−1.26	−1.25	2	9	(1.6) %	10	(1.8) %	16	(2.8) %	14	(2.5) %	5	(0.9) %	2.5	4.3	2 (0.4) n (%)	2.1	Premature discontinuation: Death (percent) [3, 13]: (0.4) %; proportion of subjects who experienced ALT increase ≥3×ULN [5]: 8.3%; LS Mean percent change in brain volume from baseline [6, 9]: −0.53%; LS Mean percent change in brain volume from baseline [6, 11]: −0.55%
CCCCCCCCc1ccc(CCC(N)(CO)CO)cc1 [fingolimod]																					time of ECG HR nadir post-dose [7]: ~6 h
CCc1cc(/C(C)=N/OCc2ccc(C3CCCCC3)c(C(F)(F)F)c2)ccc1CN1CC(C(=O)O)C1 [siponimod]																					time of ECG HR nadir post-dose [7]: 3 to 4 h
